# In patent US20240252527A9, “NUCLEOSIDE DRUGS FOR THE TREATMENT OR PREVENTION OF CORONAVIRUS INFECTION AND THEIR USES” (Miracure Biotechnology Limited, priority 2022, published 2024):
# How the values were obtained:
# 229E = 229E MRC5 CPE assay (cytopathic experiment); assay type: cell-based, coronavirus 229E (HCoV-229E); conditions: Human coronavirus 229E, MRC5, 72 h; for EC50: read-out: 229E MRC5 CPE assay (μM) EC50; for EC90: read-out: 229E MRC5 CPE assay (μM) EC90
# Protocol: (§1) Cells were seeded into microplates at a certain density and cultured overnight in a incubator at 5% CO2, 37° C. The next day, double-diluted compound and virus were added. It was set up a cell control group (cells without treatment with a compound or virus infection), a virus control group (cells infected with virus, no compound treatment) and a culture medium control group (medium only). Cells were cultured in the incubator for 3 days (229E) or 7 days (OC43). Cytotoxicity experiments were performed under the same conditions as antiviral experiments, but without virus infection. Cell viability was tested using a cell viability assay kit Cell Titer Glo (Promega).
# (§2) The antiviral activity and cytotoxicity of the compounds were expressed by the inhibition rate (%) and cell viability (%) of the compounds against virus-induced cytopathic effects at different concentrations, respectively. Nonlinear fitting analysis on the inhibition rate and cell viability of the compounds were carried out with the GraphPad Prism, and the half effective concentration (EC50), the […] effective concentration (EC90), the half cytotoxic concentration (CC50) and the 90% cytotoxic concentration of the compound […] values were calculated.
# OC43 = OC43 Huh7 CPE assay (cytopathic experiment); assay type: cell-based, coronavirus OC43 (HCoV-OC43); conditions: Betacoronavirus 1, OC43, Huh-7, 168 h; for EC50: read-out: OC43 Huh7 CPE assay (μM) EC50; for EC90: read-out: OC43 Huh7 CPE assay (μM) EC90
# Protocol: as §1, §2
Structure (SMILES),EC50 (229E),EC90 (229E),EC50 (OC43),EC90 (OC43)
CCCC(CCC)C(=O)OCNc1ncnn2c([C@]3(C#N)O[C@H](COP(=O)(OCOC(=O)C(CCC)CCC)OCOC(=O)C(CCC)CCC)[C@@H](O)[C@H]3O)ccc12 [Compound 155],0.1 to 0.5 µM,> 0.5 µM,> 0.5 µM,> 0.5 µM
CCCN(CCC)S(=O)(=O)c1ccc(C(=O)OCO[P@@]2(=O)OCC3O[C@@](C#N)(c4ccc5c(N)ncnn45)[C@H](O)[C@@H]3O2)cc1 (stereo partly shown) [Compound 156],0.1 to 0.5 µM,> 0.5 µM,> 0.5 µM,> 0.5 µM
CCCN(CCC)S(=O)(=O)c1ccc(C(=O)OCO[P@]2(=O)OCC3O[C@@](C#N)(c4ccc5c(N)ncnn45)[C@H](O)[C@@H]3O2)cc1 (stereo partly shown) [Compound 157],0.1 to 0.5 µM,> 0.5 µM,> 0.5 µM,> 0.5 µM
CCCN(CCC)S(=O)(=O)c1ccc(C(=O)O[C@@H]2[C@@H]3OP(=O)(O)OC[C@H]3O[C@@]2(C#N)c2ccc3c(N)ncnn23)cc1 [Compound 158],> 0.5 µM,> 0.5 µM,> 0.5 µM,> 0.5 µM
CCCN(CCC)S(=O)(=O)c1ccc(C(=O)OCO[P@](=O)(N[C@@H](C)C(=O)OCC(CC)CC)OC[C@H]2O[C@@](C#N)(c3ccc4c(N)ncnn34)[C@H](O)[C@@H]2O)cc1 [Compound 160],> 0.5 µM,> 0.5 µM,> 0.5 µM,> 0.5 µM
CCCN(CCC)S(=O)(=O)c1ccc(C(=O)OCO[P@@](=O)(N[C@@H](C)C(=O)OCC(CC)CC)OC[C@H]2O[C@@](C#N)(c3ccc4c(N)ncnn34)[C@H](O)[C@@H]2O)cc1 [Compound 161],> 0.5 µM,> 0.5 µM,> 0.5 µM,> 0.5 µM
CCCN(CCC)S(=O)(=O)c1ccc(C(=O)OCO[P@@](=O)(NC(C)(C)C(=O)OC(C)C)OC[C@H]2O[C@@](C#N)(c3ccc4c(N)ncnn34)[C@H](O)[C@@H]2O)cc1 [Compound 162],> 0.5 µM,> 0.5 µM,> 0.5 µM,> 0.5 µM
CCCN(CCC)S(=O)(=O)c1ccc(C(=O)OCOP(=O)(NC(C)(C)C(=O)OC(C)C)OC[C@H]2O[C@@](C#N)(c3ccc4c(N)ncnn34)[C@H](O)[C@@H]2O)cc1 (stereo partly shown) [Compound 163],> 0.5 µM,> 0.5 µM,> 0.5 µM,> 0.5 µM
CCCN(CCC)S(=O)(=O)c1ccc(C(=O)OCOP(=O)(OCOC(=O)c2ccc(S(=O)(=O)N(CCC)CCC)cc2)OC[C@H]2O[C@@](C#N)(c3ccc4c(N)ncnn34)[C@H](O)[C@@H]2O)cc1 [Compound 164],> 0.5 µM,> 0.5 µM,> 0.5 µM,> 0.5 µM
CCC(CC)COC(=O)[C@H](C)N[P@@](=O)(OCOC(=O)c1cccnc1)OC[C@H]1O[C@@](C#N)(c2ccc3c(N)ncnn23)[C@H](O)[C@@H]1O [Compound 174],> 0.5 µM,> 0.5 µM,> 0.5 µM,> 0.5 µM
CCC(CC)COC(=O)[C@H](C)NP(=O)(OCOC(=O)c1cccnc1)OC[C@H]1O[C@@](C#N)(c2ccc3c(N)ncnn23)[C@H](O)[C@@H]1O (stereo partly shown) [Compound 175],> 0.5 µM,> 0.5 µM,> 0.5 µM,> 0.5 µM
CC(C)OC(=O)C(C)(C)N[P@](=O)(OCOC(=O)c1cccnc1)OC[C@H]1O[C@@](C#N)(c2ccc3c(N)ncnn23)[C@H](O)[C@@H]1O [Compound 176],> 0.5 µM,> 0.5 µM,> 0.5 µM,> 0.5 µM
CC(C)OC(=O)C(C)(C)NP(=O)(OCOC(=O)c1cccnc1)OC[C@H]1O[C@@](C#N)(c2ccc3c(N)ncnn23)[C@H](O)[C@@H]1O (stereo partly shown) [Compound 177],> 0.5 µM,> 0.5 µM,> 0.5 µM,> 0.5 µM
N#C[C@@]1(c2ccc3c(N)ncnn23)OC2CO[P@](=O)(OCOC(=O)c3cccnc3)O[C@H]2[C@H]1O (stereo partly shown) [Compound 179],> 0.5 µM,> 0.5 µM,> 0.5 µM,> 0.5 µM
N#C[C@@]1(c2ccc3c(N)ncnn23)OC2CO[P@@](=O)(OCOC(=O)c3cccnc3)O[C@H]2[C@H]1O (stereo partly shown) [Compound 180],> 0.5 µM,> 0.5 µM,> 0.5 µM,> 0.5 µM
N#C[C@@]1(c2ccc3c(N)ncnn23)O[C@@H]2COP(=O)(O)O[C@H]2[C@H]1OC(=O)c1cccnc1 [Compound 181],> 0.5 µM,> 0.5 µM,> 0.5 µM,> 0.5 µM
